Each structure is given as a SMILES string. Counter-ions that a name gives are not always drawn. Like-named read-outs stand apart in the source and are kept apart here.

Common to all, as to assay: AK assay 384-well format, Prestwick library screening
One experiment deals with E. faecium. The format is cell-based, Enterococcus faecium. To be noted: Enterococcus faecium, 3 h.
For experiment [1], the system named is S. aureus strain USA300-0114. The format is cell-based, Staphylococcus aureus. To be noted: Staphylococcus aureus, USA300, 3 h.
The next experiment deals with K. pneumoniae. The format is cell-based, Klebsiella pneumoniae. Conditions: Klebsiella pneumoniae, 3 h.
The subject of experiment [2] is A. baumannii strain 98-37-09. The format is cell-based, Acinetobacter baumannii. Conditions: Acinetobacter baumannii, 983709, 3 h.
Another experiment relates to P. aeruginosa. It is filed as cell-based, Pseudomonas aeruginosa. Conditions: Pseudomonas aeruginosa, 3 h.
The test system of another experiment is E. cloacae. The format is cell-based, Enterobacter cloacae. To be noted: Enterobacter cloacae, 3 h.
In the next experiment the test system is E. coli. The format is cell-based, Escherichia coli. To be noted: Escherichia coli, 3 h.
Where [3] appears, read: planktonic E. faecium, 50 μM final drug concentration, 384-well, cutoff for positive-scoring molecules 3-fold increase, read-out: AK-based Prestwick Library Screening Results: E. faecium (increase in extracellular AK activity).
[4] abbreviates: planktonic S. aureus, 50 μM final drug concentration, 384-well, cutoff for positive-scoring molecules 3-fold increase, read-out: AK-based Prestwick Library Screening Results: S. aureus (increase in extracellular AK activity).
[5] abbreviates: planktonic K. pneumoniae, 50 μM final drug concentration, 384-well, cutoff for positive-scoring molecules 3-fold increase, read-out: AK-based Prestwick Library Screening Results: K. pneumoniae (increase in extracellular AK activity).
Where [6] appears, read: planktonic A. baumannii, 50 μM final drug concentration, 384-well, cutoff for positive-scoring molecules 3-fold increase, read-out: AK-based Prestwick Library Screening Results: A. baumannii (increase in extracellular AK activity).
Where [7] appears, read: planktonic P. aeruginosa, 50 μM final drug concentration, 384-well, cutoff for positive-scoring molecules 3-fold increase, read-out: AK-based Prestwick Library Screening Results: P. aeruginosa (increase in extracellular AK activity).
[8] abbreviates: planktonic E. cloacae, 50 μM final drug concentration, 384-well, cutoff for positive-scoring molecules 3-fold increase, read-out: AK-based Prestwick Library Screening Results: E. cloacae (increase in extracellular AK activity).
Where [9] appears, read: planktonic E. coli, 50 μM final drug concentration, 384-well, cutoff for positive-scoring molecules 3-fold increase, read-out: AK-based Prestwick Library Screening Results: E. coli (increase in extracellular AK activity).
The mark [10] stands for this setting: planktonic E. faecium, 50 μM final drug concentration, positive cutoff 3-fold increase, read-out: AK-based Prestwick library screening result, E. faecium (fold increase in extracellular AK activity).
[11] abbreviates: planktonic S. aureus, 50 μM final drug concentration, positive cutoff 3-fold increase, read-out: AK-based Prestwick library screening result, S. aureus (fold increase in extracellular AK activity).
The mark [12] stands for this setting: planktonic K. pneumoniae, 50 μM final drug concentration, positive cutoff 3-fold increase, read-out: AK-based Prestwick library screening result, K. pneumoniae (fold increase in extracellular AK activity).
Setting [13] is: planktonic A. baumannii, 50 μM final drug concentration, positive cutoff 3-fold increase, read-out: AK-based Prestwick library screening result, A. baumannii (fold increase in extracellular AK activity).
Setting [14] is: planktonic P. aeruginosa, 50 μM final drug concentration, positive cutoff 3-fold increase, read-out: AK-based Prestwick library screening result, P. aeruginosa (fold increase in extracellular AK activity).
Setting [15] is: planktonic E. cloacae, 50 μM final drug concentration, positive cutoff 3-fold increase, read-out: AK-based Prestwick library screening result, E. cloacae (fold increase in extracellular AK activity).
The mark [16] stands for this setting: planktonic E. coli, 50 μM final drug concentration, positive cutoff 3-fold increase, read-out: AK-based Prestwick library screening result, E. coli (fold increase in extracellular AK activity).

`CC(=O)[C@H]1CC[C@H]2[C@@H]3CC[C@H]4C[C@H](O)CC[C@]4(C)[C@H]3C(=O)C[C@]12C` [Alfaxalone]: the fold induction at 50 µM with E. faecium (read-out: AK-based Prestwick library screening result, E. faecium (fold increase in extracellular AK activity)) is 1.1; in experiment [1] (read-out: AK-based Prestwick library screening result, S. aureus (fold increase in extracellular AK activity)), 1.2; in the experiment with K. pneumoniae (read-out: AK-based Prestwick library screening result, K. pneumoniae (fold increase in extracellular AK activity)), 1; in experiment [2] (read-out: AK-based Prestwick library screening result, A. baumannii (fold increase in extracellular AK activity)), 1; with P. aeruginosa (read-out: AK-based Prestwick library screening result, P. aeruginosa (fold increase in extracellular AK activity)) it was 1.2; in the experiment with E. cloacae (read-out: AK-based Prestwick library screening result, E. cloacae (fold increase in extracellular AK activity)), 1.7. In the experiment on E. coli (read-out: AK-based Prestwick library screening result, E. coli (fold increase in extracellular AK activity)), the fold induction at 50 µM is 1.2.
On to `CCCCOc1cc(C(=O)OCCN(CC)CC)ccc1N` [Benoxinate hydrochloride], for which the fold induction at 50 µM with E. faecium (setting [3]) was 0.9; in experiment [1] (setting [4]) it was 1; in the experiment with K. pneumoniae (setting [5]) it was 1; in experiment [2] (setting [6]), 1.1; in the experiment on P. aeruginosa (setting [7]), 0.9; in the experiment on E. cloacae (setting [8]) it was 1.4. The fold induction at 50 µM in the experiment with E. coli (setting [9]) was found to be 1.3.
Regarding `CCCCC[C@H](O)/C=C/[C@H]1[C@H](O)CC(=O)[C@@H]1CCCCCCC(=O)O` [Alprostadil], the fold induction at 50 µM was found to be 1 in the experiment on E. faecium (setting [10]); 1.1 in experiment [1] (setting [11]); 1.1 with K. pneumoniae (setting [12]); 1 in experiment [2] (setting [13]); 1.1 in the experiment with P. aeruginosa (setting [14]); 1.4 in the experiment on E. cloacae (setting [15]). The fold induction at 50 µM with E. coli (setting [16]) came out at 1.3.
In the case of `COc1cc(C(=O)NCc2ccc(OCCN(C)C)cc2)cc(OC)c1OC` [Trimethobenzamide hydrochloride], the fold induction at 50 µM in the experiment with E. faecium (setting [3]) came out at 1.1; in experiment [1] (setting [4]) it was 1.2; in the experiment with K. pneumoniae (setting [5]) it was 1.1; in experiment [2] (setting [6]) it was 1.2; in the experiment on P. aeruginosa (setting [7]) it was 1; in the experiment with E. cloacae (setting [8]) it was 1.3. Also, the fold induction at 50 µM with E. coli (setting [9]) is 1.2.
Regarding `Cc1nnc(SCC2=C(C(=O)O)N3C(=O)[C@@H](NC(=O)Cn4cnnn4)[C@H]3SC2)s1` [Cefazolin sodium salt], the fold induction at 50 µM turned out to be 0.9 in the experiment with E. faecium (50 μM final drug concentration, planktonic, cutoff for positive-scoring molecules 3-fold increase, read-out: AK-based Prestwick Library Screening Results, E. faecium (fold increase in extracellular AK activity)); 3.1 in experiment [1] (50 μM final drug concentration, planktonic, cutoff for positive-scoring molecules 3-fold increase, read-out: AK-based Prestwick Library Screening Results, S. aureus (fold increase in extracellular AK activity)); 3.6 with K. pneumoniae (50 μM final drug concentration, planktonic, cutoff for positive-scoring molecules 3-fold increase, read-out: AK-based Prestwick Library Screening Results, K. pneumoniae (fold increase in extracellular AK activity)); 0.5 in experiment [2] (50 μM final drug concentration, planktonic, cutoff for positive-scoring molecules 3-fold increase, read-out: AK-based Prestwick Library Screening Results, A. baumannii (fold increase in extracellular AK activity)); 0.7 with P. aeruginosa (50 μM final drug concentration, planktonic, cutoff for positive-scoring molecules 3-fold increase, read-out: AK-based Prestwick Library Screening Results, P. aeruginosa (fold increase in extracellular AK activity)); 0.9 with E. cloacae (50 μM final drug concentration, planktonic, cutoff for positive-scoring molecules 3-fold increase, read-out: AK-based Prestwick Library Screening Results, E. cloacae (fold increase in extracellular AK activity)). The fold induction at 50 µM in the experiment with E. coli (50 μM final drug concentration, planktonic, cutoff for positive-scoring molecules 3-fold increase, read-out: AK-based Prestwick Library Screening Results, E. coli (fold increase in extracellular AK activity)) stood at 16.5.
Consider `COc1ccccc1OCC(O)CN1CCN(CC(=O)Nc2c(C)cccc2C)CC1` (stereo not drawn) [Ranolazine], for which the fold induction at 50 µM in the experiment on E. faecium (setting [10]) stood at 0.9; in experiment [1] (setting [11]), 1; in the experiment on K. pneumoniae (setting [12]), 0.9; in experiment [2] (setting [13]), 1.2; in the experiment on P. aeruginosa (setting [14]), 1; with E. cloacae (setting [15]) it was 1.4. Also, the fold induction at 50 µM with E. coli (setting [16]) was found to be 1.2.
Turning to `NC(N)=NCCCCN=C(N)N` [Arcaine sulfate], the fold induction at 50 µM in the experiment with E. faecium (50 μM final drug concentration, cutoff for positive-scoring molecules 3-fold increase, read-out: AK-based Prestwick Library Screening Results, E. faecium (fold increase in extracellular AK activity)) amounted to 0.6; in experiment [1] (50 μM final drug concentration, cutoff for positive-scoring molecules 3-fold increase, read-out: AK-based Prestwick Library Screening Results, S. aureus (fold increase in extracellular AK activity)) it was 0.9; in the experiment on K. pneumoniae (50 μM final drug concentration, cutoff for positive-scoring molecules 3-fold increase, read-out: AK-based Prestwick Library Screening Results, K. pneumoniae (fold increase in extracellular AK activity)), 0.7; in experiment [2] (50 μM final drug concentration, cutoff for positive-scoring molecules 3-fold increase, read-out: AK-based Prestwick Library Screening Results, A. baumannii (fold increase in extracellular AK activity)), 0.8; in the experiment with P. aeruginosa (50 μM final drug concentration, cutoff for positive-scoring molecules 3-fold increase, read-out: AK-based Prestwick Library Screening Results, P. aeruginosa (fold increase in extracellular AK activity)), 0.8; with E. cloacae (50 μM final drug concentration, cutoff for positive-scoring molecules 3-fold increase, read-out: AK-based Prestwick Library Screening Results, E. cloacae (fold increase in extracellular AK activity)) it was 1.2. Moreover, the fold induction at 50 µM in the experiment on E. coli (50 μM final drug concentration, cutoff for positive-scoring molecules 3-fold increase, read-out: AK-based Prestwick Library Screening Results, E. coli (fold increase in extracellular AK activity)) was determined as 0.7.
As to `CN(C)C/C=C(/c1ccc(Br)cc1)c1cccnc1` [Zimelidine dihydrochloride monohydrate], the fold induction at 50 µM in the experiment with E. faecium (50 μM final drug concentration, 384-well format, cutoff for positive-scoring molecules 3-fold increase, read-out: AK-based Prestwick Library Screening Results, E. faecium (increase in extracellular AK activity)) came out at 0.9; in experiment [1] (50 μM final drug concentration, 384-well format, cutoff for positive-scoring molecules 3-fold increase, read-out: AK-based Prestwick Library Screening Results, S. aureus (increase in extracellular AK activity)) it was 0.8; in the experiment on K. pneumoniae (50 μM final drug concentration, 384-well format, cutoff for positive-scoring molecules 3-fold increase, read-out: AK-based Prestwick Library Screening Results, K. pneumoniae (increase in extracellular AK activity)), 0.5; in experiment [2] (50 μM final drug concentration, 384-well format, cutoff for positive-scoring molecules 3-fold increase, read-out: AK-based Prestwick Library Screening Results, A. baumannii (increase in extracellular AK activity)), 0.7; with P. aeruginosa (50 μM final drug concentration, 384-well format, cutoff for positive-scoring molecules 3-fold increase, read-out: AK-based Prestwick Library Screening Results, P. aeruginosa (increase in extracellular AK activity)), 0.6; in the experiment on E. cloacae (50 μM final drug concentration, 384-well format, cutoff for positive-scoring molecules 3-fold increase, read-out: AK-based Prestwick Library Screening Results, E. cloacae (increase in extracellular AK activity)), 0.8. Further, the fold induction at 50 µM in the experiment with E. coli (50 μM final drug concentration, 384-well format, cutoff for positive-scoring molecules 3-fold increase, read-out: AK-based Prestwick Library Screening Results, E. coli (increase in extracellular AK activity)) is 0.7.
In the case of `O=c1[nH]cnc2c1ncn2[C@H]1CC[C@@H](CO)O1` [Didanosine], the fold induction at 50 µM came to 0.9 with E. faecium (setting [3]); 1.2 in experiment [1] (setting [4]); 0.9 with K. pneumoniae (setting [5]); 1.5 in experiment [2] (setting [6]); 1 in the experiment with P. aeruginosa (setting [7]); 4.2 in the experiment with E. cloacae (setting [8]). Also, in the experiment with E. coli (planktonic E. coli, 50 μM final drug concentration, 384-well, […], read-out: AK-based Prestwick Library Screening Results: E. coli (increase in extracellular AK activity)), the fold induction at 50 µM stood at 4.7.
